Experiment [1] concerns the target T1, Ubiquitin carboxyl-terminal hydrolase 2 (Homo sapiens, UniProt O75604).
T1 sequence (O75604 whole entry): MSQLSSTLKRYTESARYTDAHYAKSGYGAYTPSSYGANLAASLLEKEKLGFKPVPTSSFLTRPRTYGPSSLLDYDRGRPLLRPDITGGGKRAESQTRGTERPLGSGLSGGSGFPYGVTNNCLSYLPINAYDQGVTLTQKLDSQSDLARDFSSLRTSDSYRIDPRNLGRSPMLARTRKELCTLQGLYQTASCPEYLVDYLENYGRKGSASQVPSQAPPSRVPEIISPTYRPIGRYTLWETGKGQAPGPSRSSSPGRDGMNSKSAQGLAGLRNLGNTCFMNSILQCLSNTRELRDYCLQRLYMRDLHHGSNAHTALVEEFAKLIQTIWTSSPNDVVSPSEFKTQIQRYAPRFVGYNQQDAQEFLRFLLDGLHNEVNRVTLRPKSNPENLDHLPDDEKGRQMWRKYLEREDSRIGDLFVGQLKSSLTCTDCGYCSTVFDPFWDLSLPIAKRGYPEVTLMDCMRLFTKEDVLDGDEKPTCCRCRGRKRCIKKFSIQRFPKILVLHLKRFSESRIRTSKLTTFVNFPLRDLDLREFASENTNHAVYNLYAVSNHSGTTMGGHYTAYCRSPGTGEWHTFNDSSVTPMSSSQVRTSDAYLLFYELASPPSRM
In words: Inhibition of human USP2 (258 to 605 residues) catalytic domain by fluorescence based assay.

Experiment [2] deals with T2, Ubiquitin carboxyl-terminal hydrolase 7 (Homo sapiens, UniProt Q93009). Briefly: Inhibition of human USP7 using ubiquitin-Rho110 as substrate incubated for 1 hrs.
T2 sequence (Q93009 whole entry): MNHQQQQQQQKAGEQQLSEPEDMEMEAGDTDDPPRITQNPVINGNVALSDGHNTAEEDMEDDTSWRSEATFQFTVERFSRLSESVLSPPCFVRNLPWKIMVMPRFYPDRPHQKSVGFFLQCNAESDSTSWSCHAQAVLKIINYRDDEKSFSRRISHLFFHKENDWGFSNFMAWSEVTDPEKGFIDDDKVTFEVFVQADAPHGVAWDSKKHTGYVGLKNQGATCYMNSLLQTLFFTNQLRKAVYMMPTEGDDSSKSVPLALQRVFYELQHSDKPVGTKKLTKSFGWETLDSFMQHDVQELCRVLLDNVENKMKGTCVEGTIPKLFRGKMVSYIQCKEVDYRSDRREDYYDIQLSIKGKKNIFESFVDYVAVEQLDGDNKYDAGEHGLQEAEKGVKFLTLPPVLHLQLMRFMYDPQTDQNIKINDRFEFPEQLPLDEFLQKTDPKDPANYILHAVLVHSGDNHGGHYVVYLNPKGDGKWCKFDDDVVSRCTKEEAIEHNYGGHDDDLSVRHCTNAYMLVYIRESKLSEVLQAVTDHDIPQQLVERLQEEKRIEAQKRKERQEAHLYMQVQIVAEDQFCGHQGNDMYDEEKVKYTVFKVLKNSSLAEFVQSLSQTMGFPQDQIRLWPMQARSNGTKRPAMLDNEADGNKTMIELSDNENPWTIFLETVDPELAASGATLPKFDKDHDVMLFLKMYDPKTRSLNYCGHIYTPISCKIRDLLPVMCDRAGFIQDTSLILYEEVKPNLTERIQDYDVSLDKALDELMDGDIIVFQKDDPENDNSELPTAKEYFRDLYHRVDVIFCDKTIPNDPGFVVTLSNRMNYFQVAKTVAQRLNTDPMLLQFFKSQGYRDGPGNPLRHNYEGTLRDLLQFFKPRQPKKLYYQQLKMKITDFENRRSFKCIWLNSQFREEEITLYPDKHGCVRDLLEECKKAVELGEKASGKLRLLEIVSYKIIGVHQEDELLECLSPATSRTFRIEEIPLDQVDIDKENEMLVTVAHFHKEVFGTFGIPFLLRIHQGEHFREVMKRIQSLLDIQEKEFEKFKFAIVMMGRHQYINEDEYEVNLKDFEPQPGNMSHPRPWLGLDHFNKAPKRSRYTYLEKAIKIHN
Experiment [3] addresses T2, Ubiquitin carboxyl-terminal hydrolase 7. In words: Inhibition of human USP7 using UbA10 as substrate incubated for 10 mins by TR-FRET assay. Background: TR-FRET usually uses a lanthanide donor and a delayed reading to cut background.
The target is the same in experiment [4]. In words: Inhibition of human USP7 using Ub-AMC as substrate.
The target of experiment [5] is T3, Ubiquitin carboxyl-terminal hydrolase 47 (Homo sapiens, UniProt Q96K76).
T3 sequence (Q96K76 whole entry): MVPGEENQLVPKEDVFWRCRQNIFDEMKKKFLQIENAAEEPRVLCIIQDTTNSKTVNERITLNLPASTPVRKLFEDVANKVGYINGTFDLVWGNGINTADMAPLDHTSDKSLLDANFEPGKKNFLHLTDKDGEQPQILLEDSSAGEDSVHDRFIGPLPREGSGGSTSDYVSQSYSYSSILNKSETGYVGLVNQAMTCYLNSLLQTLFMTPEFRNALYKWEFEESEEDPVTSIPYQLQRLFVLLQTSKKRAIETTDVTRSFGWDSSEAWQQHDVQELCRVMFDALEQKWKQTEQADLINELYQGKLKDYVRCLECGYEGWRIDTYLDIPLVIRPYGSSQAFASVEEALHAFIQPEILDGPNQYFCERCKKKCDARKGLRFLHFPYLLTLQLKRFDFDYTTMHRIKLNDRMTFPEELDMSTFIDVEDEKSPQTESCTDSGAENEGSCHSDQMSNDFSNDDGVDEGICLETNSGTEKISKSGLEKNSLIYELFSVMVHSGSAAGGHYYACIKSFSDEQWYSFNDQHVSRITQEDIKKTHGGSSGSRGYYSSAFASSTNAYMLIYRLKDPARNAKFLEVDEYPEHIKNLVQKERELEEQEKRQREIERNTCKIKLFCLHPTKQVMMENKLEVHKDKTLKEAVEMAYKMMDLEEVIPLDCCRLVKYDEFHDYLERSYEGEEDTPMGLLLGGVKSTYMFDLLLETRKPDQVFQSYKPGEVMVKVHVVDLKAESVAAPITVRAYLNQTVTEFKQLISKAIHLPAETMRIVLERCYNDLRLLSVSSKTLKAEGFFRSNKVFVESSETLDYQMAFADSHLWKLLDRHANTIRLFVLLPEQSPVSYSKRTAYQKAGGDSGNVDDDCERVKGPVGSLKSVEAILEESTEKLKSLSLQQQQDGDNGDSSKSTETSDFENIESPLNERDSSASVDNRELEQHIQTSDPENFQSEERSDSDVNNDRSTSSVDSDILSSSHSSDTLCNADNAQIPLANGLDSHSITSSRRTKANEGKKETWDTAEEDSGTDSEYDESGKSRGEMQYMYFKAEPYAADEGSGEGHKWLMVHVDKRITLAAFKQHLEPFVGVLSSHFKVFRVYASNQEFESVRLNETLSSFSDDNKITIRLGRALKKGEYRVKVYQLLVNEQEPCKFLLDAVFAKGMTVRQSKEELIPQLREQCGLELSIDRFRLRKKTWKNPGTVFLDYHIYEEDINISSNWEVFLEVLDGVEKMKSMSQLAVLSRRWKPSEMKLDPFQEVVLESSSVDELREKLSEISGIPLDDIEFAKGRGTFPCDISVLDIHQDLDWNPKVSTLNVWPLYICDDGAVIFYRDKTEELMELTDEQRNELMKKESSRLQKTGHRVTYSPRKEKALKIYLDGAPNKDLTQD
Briefly: Inhibition of USP47 (unknown origin).

Experiment [6] concerns the target T4, Ubiquitin carboxyl-terminal hydrolase 8 (Homo sapiens, UniProt P40818).
T4 sequence (P40818 whole entry): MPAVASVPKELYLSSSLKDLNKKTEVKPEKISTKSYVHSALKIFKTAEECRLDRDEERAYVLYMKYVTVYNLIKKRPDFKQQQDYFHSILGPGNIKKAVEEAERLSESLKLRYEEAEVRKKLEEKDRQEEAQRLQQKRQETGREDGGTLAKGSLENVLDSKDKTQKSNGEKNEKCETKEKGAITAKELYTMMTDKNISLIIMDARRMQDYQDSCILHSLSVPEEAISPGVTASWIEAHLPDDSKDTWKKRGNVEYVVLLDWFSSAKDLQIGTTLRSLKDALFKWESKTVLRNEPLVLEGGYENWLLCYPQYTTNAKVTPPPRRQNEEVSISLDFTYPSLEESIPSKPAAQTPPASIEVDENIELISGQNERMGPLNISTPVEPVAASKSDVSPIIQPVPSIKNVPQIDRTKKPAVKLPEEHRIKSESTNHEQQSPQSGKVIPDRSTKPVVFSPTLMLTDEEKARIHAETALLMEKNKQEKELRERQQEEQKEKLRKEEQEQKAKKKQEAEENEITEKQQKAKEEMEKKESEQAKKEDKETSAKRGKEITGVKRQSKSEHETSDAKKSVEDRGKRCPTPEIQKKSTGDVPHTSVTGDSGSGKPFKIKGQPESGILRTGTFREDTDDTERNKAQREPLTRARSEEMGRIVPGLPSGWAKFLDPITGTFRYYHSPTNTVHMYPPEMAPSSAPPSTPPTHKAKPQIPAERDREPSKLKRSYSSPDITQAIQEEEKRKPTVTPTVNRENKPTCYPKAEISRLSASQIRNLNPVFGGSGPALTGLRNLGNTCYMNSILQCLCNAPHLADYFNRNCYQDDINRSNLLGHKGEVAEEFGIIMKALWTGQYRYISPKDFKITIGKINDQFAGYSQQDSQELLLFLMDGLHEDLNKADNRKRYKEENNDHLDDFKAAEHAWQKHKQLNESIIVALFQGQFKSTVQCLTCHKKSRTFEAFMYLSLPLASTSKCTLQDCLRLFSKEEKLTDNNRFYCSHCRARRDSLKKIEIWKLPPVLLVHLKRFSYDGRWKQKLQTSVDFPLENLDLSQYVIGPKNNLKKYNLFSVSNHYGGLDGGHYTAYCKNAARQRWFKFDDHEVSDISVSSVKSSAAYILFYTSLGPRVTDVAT
Briefly: Inhibition of USP8 (unknown origin).

The subject of another experiment is HCT-116. In words: Anticancer activity against human HCT-116 cells assessed as cell growth inhibition incubated for 6 days by MTT assay. To be noted: HCT-116, 144 h, time 6 day, read-out: LD50 (the source's name). The experiment is classed as functional.
The nature of experiment [7]: Inhibition of USP2a (unknown origin). The arrangement: species or system Homo sapiens.
Experiment [8] deals with T4, Ubiquitin carboxyl-terminal hydrolase 8. Briefly: Inhibition of human USP8 using Ub-AMC as substrate.
The target in experiment [9] is T2, Ubiquitin carboxyl-terminal hydrolase 7. In words: Inhibition of human USP7 using ubiquitin-Rho as substrate incubated for 1 hrs.
The target in experiment [10] is T5, Ubiquitin carboxyl-terminal hydrolase 28 (Homo sapiens, UniProt Q96RU2).
T5 sequence (Q96RU2 whole entry): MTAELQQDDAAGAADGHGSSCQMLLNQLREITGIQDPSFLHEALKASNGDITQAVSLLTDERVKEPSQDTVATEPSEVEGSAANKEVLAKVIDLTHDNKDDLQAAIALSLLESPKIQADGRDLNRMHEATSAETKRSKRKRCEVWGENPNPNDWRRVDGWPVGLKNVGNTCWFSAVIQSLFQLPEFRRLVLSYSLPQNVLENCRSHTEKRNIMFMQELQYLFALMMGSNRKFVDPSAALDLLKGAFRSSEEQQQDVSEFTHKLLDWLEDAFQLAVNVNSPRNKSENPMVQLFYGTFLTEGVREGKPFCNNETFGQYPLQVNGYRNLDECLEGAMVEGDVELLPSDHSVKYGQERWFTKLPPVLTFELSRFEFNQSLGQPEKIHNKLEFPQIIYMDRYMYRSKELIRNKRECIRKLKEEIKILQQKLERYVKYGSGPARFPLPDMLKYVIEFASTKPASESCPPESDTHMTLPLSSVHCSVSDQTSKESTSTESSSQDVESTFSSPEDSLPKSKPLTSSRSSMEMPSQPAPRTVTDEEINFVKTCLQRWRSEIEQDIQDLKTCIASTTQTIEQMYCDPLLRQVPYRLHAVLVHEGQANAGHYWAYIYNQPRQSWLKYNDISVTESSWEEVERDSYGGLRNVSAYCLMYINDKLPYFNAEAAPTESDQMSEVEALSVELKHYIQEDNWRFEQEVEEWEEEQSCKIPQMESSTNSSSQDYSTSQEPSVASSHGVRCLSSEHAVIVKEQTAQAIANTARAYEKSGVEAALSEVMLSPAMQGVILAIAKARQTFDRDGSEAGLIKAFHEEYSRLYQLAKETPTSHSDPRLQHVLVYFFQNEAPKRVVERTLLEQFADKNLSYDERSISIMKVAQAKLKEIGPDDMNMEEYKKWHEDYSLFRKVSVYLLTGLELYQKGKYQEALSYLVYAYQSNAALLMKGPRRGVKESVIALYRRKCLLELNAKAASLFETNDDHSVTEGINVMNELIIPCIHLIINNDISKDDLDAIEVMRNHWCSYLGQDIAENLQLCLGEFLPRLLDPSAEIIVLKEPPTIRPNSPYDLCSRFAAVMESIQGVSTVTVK
Briefly: Inhibition of USP28 (unknown origin) using […] as substrate by […] analysis.

The record followed here is ChEMBL document CHEMBL5233229, “Recent advances in the development of ubiquitin-specific-processing protease 7 (USP7) inhibitors” (Eur J Med Chem, 2020).

Usually IC50 stands for the concentration that inhibits the measured activity by half.

The compound `Nc1nc2nc[nH]c2c(=S)[nH]1` [THIOGUANINE] returned an IC50 in experiment [1] of 42 µM.
As for `CC(=O)Nc1cccc(-c2cnc(N)c(-c3ccc(O)cc3)c2C)c1`, half-maximal inhibition in experiment [2] (IC50) required 42 µM.
Consider `Nc1ncc(-c2ccccc2)cc1-c1ccc(O)cc1`, for which half-maximal inhibition in [3] (IC50) required 9.6 µM.
Still for that read-out and setting: next, `CCc1c(-c2ccc(O)cc2)cnc(N)c1-c1ccc2cn[nH]c2c1`: 0.61 µM.
As to `N#Cc1nc2c(nc1C#N)-c1ccc(Cl)cc1C2=O`, the IC50 was determined as 0.4 µM in experiment [4], 0.4 µM in experiment [5] and 0.96 µM in [6].
The compound `Nc1ncc(-c2ccc(O)cc2)cc1-c1ccc(O)cc1` yielded an IC50 in experiment [3] greater than 50 µM.
As to `C[C@H](CC(=O)O)[C@H]1CC[C@H]2[C@@H]3CC[C@@H]4CC(=O)CC[C@]4(C)[C@H]3CC[C@]12C`, the CC50 in the experiment on HCT-116 is greater than 50 µM. Also, the IC50 in experiment [7] stood at 32 µM.
In the case of `CCOc1nc2c(nc1C#N)C(=O)c1ccccc1-2`, the IC50 in experiment [4] and in [8] was greater than 100 µM throughout.
As for `N#Cc1nc2c(nc1C#N)-c1cc(Cl)ccc1C2=O`, the figures for the IC50 in [4] and in [8] were 2.55 µM and 0.133 µM, respectively.
The corresponding values for `CCO/C(O)=C(\C#N)c1nc2c(nc1C#N)C(=O)c1ccccc1-2` are greater than 100 µM and greater than 100 µM.
For the compound `C[C@H](CC(N)=O)[C@H]1CC[C@H]2[C@@H]3CC[C@@H]4C[C@H](O)CC[C@]4(C)[C@H]3CC[C@]12C`, the CC50 with HCT-116 was found to be 24.5 µM. This compound also registered an IC50 in [7] of 27.9 µM.
Consider `C[C@H](CC(=O)NCC(=O)O)[C@H]1CC[C@H]2[C@@H]3CC[C@@H]4C[C@H](O)CC[C@]4(C)[C@H]3CC[C@]12C`, for which, in the experiment on HCT-116, the CC50 was greater than 100 µM. This compound gave an IC50 in experiment [7] greater than 50 µM.
In the case of `CCc1c(-c2ccc(O)cc2)cnc(N)c1-c1ccc(S(C)(=O)=O)cc1`, the IC50 in experiment [9] is greater than 63.3 µM.
For the compound `C[C@H](CC(=O)NO)[C@H]1CC[C@H]2[C@@H]3CC[C@@H]4C[C@H](O)CC[C@]4(C)[C@H]3CC[C@]12C`, the CC50 with HCT-116 came to 27.8 µM. This compound displayed an IC50 in experiment [7] of 9.7 µM.
With `CO/C(O)=C(\C#N)c1nc2c(nc1C#N)C(=O)c1ccccc1-2`, the IC50 in [5] and in [6] was greater than 100 µM in each case.
Regarding `OCCNCc1cc(Br)ccc1OCc1cc(F)c(F)cc1F`, it took 2 µM to reach half-maximal inhibition in [10] (IC50).
Take `COC(=O)C[C@@H](C)[C@H]1CC[C@H]2[C@@H]3CC[C@@H]4C[C@H](O)CC[C@]4(C)[C@H]3CC[C@]12C`: the CC50 in the experiment with HCT-116 came out at 20.5 µM. The compound further showed an IC50 in [7] greater than 50 µM.
Taken in the same sequence, the figures for `C[C@H](CC(=O)NCC#N)[C@H]1CC[C@H]2[C@@H]3CC[C@@H]4C[C@H](O)CC[C@]4(C)[C@H]3C[C@H](O)[C@]12C` were 28 µM and 7.4 µM.
Take `Sc1ncnc2nc[nH]c12` [MERCAPTOPURINE ANHYDROUS]: the IC50 in [1] was greater than 100 µM.
As for `CCc1c(-c2ccc(C(=O)N(C)C)cc2)cnc(N)c1-c1ccc(O)cc1`, the IC50 in [9] stood at 75.6 µM.
On to `CCc1c(-c2cccc(NC(C)=O)c2)cnc(N)c1-c1cccs1`, for which the IC50 in [2] was greater than 63.3 µM.
`CCc1c(-c2ccc(O)cc2)cnc(N)c1-c1cccc(C)c1`: the IC50 in [9] is greater than 63.3 µM.
